Source: ChEMBL document CHEMBL1128626, “The synthesis and biological activity of enediyne minor groove binding hybrids” (Bioorg Med Chem Lett, 1995)
pIC50: −log10 of the molar value.

Experiments:
Nucleic Acid [1] = assay: Concentration of drug which induced cleavage of 50% of PM2 supercoiled DNA in the absence of beta-mercaptoethanol; type: functional
Nucleic Acid [2] = assay: Concentration of drug which induced cleavage of 50% of PM2 supercoiled DNA in the presence of beta-mercaptoethanol; type: functional
HCT-116 = assay: Cytotoxicity against HCT116 human colon tumor cell line; type: functional, cell-based

SMILES | Cleavage (Nucleic Acid [1]) | Cleavage (Nucleic Acid [2]) | pIC50 (HCT-116)
O=C1C2=CCC[C@@]1(O)C#C/C=C\C#C[C@@H]2O | 1000 µM | 100 µM | –
Cn1cc(NC(=O)c2cc(NC(=O)Cc3ccc(COCO[C@@]45C#C/C=C\C#C[C@H](O)C(=CCC4)C5=O)cc3)cn2C)cc1C(=O)NCCC(=N)N | 100 µM | 10 µM | 5.13
C=C(OC)C(=O)Nc1cc(OC)c(OC)cc1C(=O)O[C@H]1C[C@H](O[C@@H]2C(=O)C(NC(=O)OC)=C3/C(=C\CSSSC)[C@]2(O)C#C/C=C\C#C[C@@H]3O[C@@H]2O[C@H](C)[C@@H](NO[C@H]3C[C@H](O)[C@H](SC)[C@@H](C)O3)[C@H](O)[C@H]2O[C@H]2C[C@H](OC)[C@@H](NC(C)C)CO2)O[C@@H](C)[C@H]1O [ESPERAMICIN A1] | 10 µM | < 1 µM | 12.00
Cn1cc(NC(=O)Cc2ccc(CO[C@H]3C#C/C=C\C#C[C@]4(O)CCC=C3C4=O)cc2)cc1C(=O)Cc1cc(C(=O)NCCC(=N)N)n(C)c1 | 10 µM | < 1 µM | 3.19
